Experimental data from US20250345318A1, “COMPOUND AND USE THEREOF IN PREVENTING OR TREATING RADIATION DAMAGE” (SIMCERE PHARMACEUTICAL CO., LTD., priority 2022, published 2025).

Legend:
[1] = test system: lung tissue; experiment: JWA, γ-H2AX, p-p65 in lung tissue of xenograft mice (immunofluorescence, immunoblot) (Example 21); assay type: in vivo
Excerpt: In order to verify the protection effect of JAC4 against X-ray-induced DNA damage in lung tissues, 3 mice were randomly selected from each group to provide the lung tissue for immunofluorescence staining, and proteins were extracted from the lung tissues of the other 3 mice for western immunoblot to detect the expression levels of JWA, γ-H2AX, and p-p65, thereby verifying the relation between the targets of JAC4 and the reduction of DNA damage and apoptotic damages in the lung tissues. The western blot procedures are detailed in Example 4, and the immunofluorescence staining procedures are as follows:
1. Dewaxing and hydration: Prepared paraffin sections were dewaxed in an oven at 60° C. for 2-3 h to ensure a tight attachment between the section and the slide; the sections were then dewaxed by soaking in xylene I, 30 min→xylene II, 30 min→xylene III, 30 min→absolute ethyl alcohol I, shaker, 5 min→absolute ethyl alcohol II, shaker, 5 min→95% ethyl alcohol, shaker, 5 min→85% ethyl alcohol, shaker, 5 min→75% ethyl alcohol, shaker, 5 min→PBS, shaker, 5 min×3.
2. Antigen retrieval: The washed sections were boiled in 500 mL of 1× antigen retrieval solution (20× sodium citrate buffer 25 mL, pH 6.0, diluted to 1× in 475 mL of PBS), then taken out 10 min after the solution started boiling, and cooled to room temperature.
3. Cleaning and blocking: The sections were washed with PBS for 5 min thrice on a shaker. Droplets on the sections were removed carefully without overdrying. The edges of the sections were marked with an immunofluorescent pen, and a blocking buffer (centrifuged at 12,000 g for 5 min) was dropwise added to completely cover the sections. The sections were blocked for 1 h at room temperature.
4. Cleaning and co-incubation with primary antibody: After removing the blocking buffer, the sections were washed with PBS for 5 min thrice on a shaker; the primary antibody (centrifuged at 6,000 g for 5 min) was added dropwise to cover the sections, and the sections were incubated into a humidified chamber overnight at 4° C.
5. Cleaning and co-incubation with secondary antibody: The sections were washed with PBS for 5 min thrice on a shaker before the fluorescent secondary antibody (centrifuged at 6,000 g for 5 min) was added dropwise away from light. The sections were incubated at room temperature for 1 h.
6. Cleaning, nucleus staining, and photographing: The whole procedure was performed away from light. The sections were washed with PBS for 5 min thrice on a shaker. An anti-fluorescence quenching blocker containing DAPI was added dropwise. The cover glass was mounted for sealing and slowly from one side to avoid bubbles. The sealed slices were incubated in a humidified chamber for 15 min and continuously photographed to give images under a laser confocal microscope.

[2] = test system: lung tissue; experiment: Inflammation level in lung tissue of xenograft mice (RT-PCR, HE) (Example 21); assay type: in vivo
Procedure: After the modeling in Example 20 was completed, the inflammation level and DNA damage in the lung tissue were detected by the following specific procedures: 3 mice were randomly selected from each group to provide the lung tissue. About 20-30 mg of lung tissue was collected from each mouse in a centrifuge tube. The total RNA was isolated and extracted using the TRIzol reagent (Invitrogen) for RT-PCR (Reverse Transcription-Polymerase Chain Reaction) detection. The RNA was reversely transcribed into cDNA using a reverse transcription kit from Vazyme. Reaction system: 42° C., 2 min; 37° C., 15 min; 85° C., 5 s. The samples were preserved in a refrigerator at […] or −80° C. for later use. 30-35 PCR amplification cycles were performed. The data were analyzed by the ΔΔCt method using glyceraldehyde-3-phosphate dehydrogenase (GAPDH) as an internal standard and the AceQ qPCR SYBR Green Master Mix fluorescent quantitative PCR reagent from Vazyme on the 7900HT high throughput flash real-time fluorescent quantitative PCR system from Thermo Fisher Scientific for PCR assay. The results are shown in FIG. 29, with the following specific conditions: […]

[3] = test system: SPCA-1 cells; experiment: γ-H2AX foci and Western blot (DSBs), SPCA-1 (Example 22); assay type: cell-based, human
Procedure: To investigate the effect of JAC4 in combination with X-ray on DSBs in SPCA-1 and BEAS-2B cells, SPCA-1 and BEAS-2B cells were pretreated with 10 μM JAC4 for 24 h and 4 Gy X-ray for 2 h, and then subjected to γ-H2AX fluorescent labeling and Western immunoblot (see Example 4 for detailed procedures).

[4] = test system: SPCA-1 cells; experiment: Apoptosis (Hoechst 33342) and mitochondrial membrane potential (JC-1), SPCA-1 (Example 22); assay type: cell-based, human
Procedure: Severe DSBs may cause apoptosis. SPCA-1 and BEAS-2B cells were plated and cultured for 24 h before they were treated with 10 μM JAC4 for 24 h and 4 Gy X-ray for 24 h. The cells were stained with Hoechst 33342 (see Hoechst staining for apoptosis detection in Example 13) to evaluate the effect of JAC4 in combination with radiation on apoptosis. […] The decrease in mitochondrial membrane potential (JC-1) is a marker event in the early stage of apoptosis. The mitochondrial membrane potential was measured using fluorescent probe JC-1. The red fluorescence indicates a high mitochondrial membrane potential leading to JC-1 aggregate formation, and the green fluorescence indicates the mitochondrial membrane potential depolarization. The fluorescence ratio of red to green reflects the mitochondrial membrane potential and the number of early apoptotic cells.

[5] = JAC4+X-ray group relative to X-ray group
[6] = JAC4 group relative to control group
[7] = SPCA-1, 10 μM JAC4 + 4 Gy X-ray vs X-ray monotherapy

With `c1ccc(CSc2nnc(C3COc4ccccc4O3)o2)nc1` (stereo not drawn) [JAC4] the “JWA protein level in lung tissue (immunoblot)” value [1, 5] was 1.25 folds, the “p-p65 protein level in lung tissue (immunoblot)” value [1, 5] was 0.61 folds and the “γ-H2AX protein level in lung tissue (immunoblot)” value [1, 5] was 0.83 folds. The “fluorescence intensities of γ-H2AX, TNF-α, and TGF-β1 in lung tissue” value ([1]; JAC4+X-ray group vs X-ray group, immunofluorescence) was “significantly decreased”, the “JWA fluorescence intensity in lung tissue” value ([1]; JAC4 and JAC4+X-ray groups vs control group, immunofluorescence) was “higher JWA fluorescence intensity as compared with the control group” and the “JWA protein level in lung tissue (immunoblot)” value [1, 6] was 4.23 folds. The “p-p65 protein level in lung tissue (immunoblot)” value [1, 6] was 0.63 folds, the “γ-H2AX protein level in lung tissue (immunoblot)” value [1, 6] was 0.91 folds and the “mRNA level of anti-inflammatory factor IL-10 in lung tissue” value [2, 5] was 2.91 folds. The “mRNA level of proinflammatory factor IL-1P in lung tissue” value [2, 5] was 0.43 folds, the “mRNA level of proinflammatory factor TGF-β1 in lung tissue” value [2, 5] was 0.71 folds and the “mRNA level of proinflammatory factor TNF-α in lung tissue” value [2, 5] was 0.63 folds. The “HE staining of lung tissues” value ([2]; JAC4 treatment in combination with X-ray therapy) was “reduced inflammatory cell infiltration”, the γ-H2AX foci ([3]; SPCA-1, 10 μM JAC4 24 h + 4 Gy X-ray 2 h vs X-ray monotherapy) was “increase” and the “JWA expression level (Western blot)” value [3, 7] was “increased”. The “γ-H2AX expression level (Western blot)” value [3, 7] was “increased”, the “apoptosis (Hoechst 33342)” value ([4]; SPCA-1, 10 μM JAC4 24 h + 4 Gy X-ray 24 h) was “increased the pro-apoptotic effect of X-ray” and the “mitochondrial membrane potential (JC-1)” value ([4]; SPCA-1, JAC4 in combination with X-ray) was “aggravated the decrease in mitochondrial membrane potential”.
